Source: patent publication US20190374526A1, “Substituted Heterocyclic Compounds as Inhibitors of PRDM9” (Merck Sharp & Dohme Corp., priority 2018, published 2019)

Molecular target: T1, hPRDM9 (amino acids 195-385) (Homo sapiens, UniProt Q9NQV7)
T1 construct: 1.25 nM hPRDM9 (amino acids 195-385)
T1 sequence (Q9NQV7 195-385): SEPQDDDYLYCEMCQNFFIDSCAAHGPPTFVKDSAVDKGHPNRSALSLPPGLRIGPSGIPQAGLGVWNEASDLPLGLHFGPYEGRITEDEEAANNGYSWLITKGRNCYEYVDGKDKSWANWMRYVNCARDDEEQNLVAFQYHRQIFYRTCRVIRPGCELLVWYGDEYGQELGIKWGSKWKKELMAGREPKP
Assay: PRDM9 biochemical assay (radiometric, 3[H] methyl transfer from SAM to biotinylated histone H3 peptide)
Settings: 1 nM hPRDM9, 1 μM biotinylated H3(1-25)K4 peptide, 5 μM 3[H]-SAM, 55 μM un-labeled SAM, 25° C., 30 minutes
Method: The PRDM9 biochemical assay was carried out using a radiometric format involving the transfer of ^3[H] methyl group from S-adenosyl methionine (SAM) to a biotinylated histone H3 peptide (H3(1-25)K4). 10 mM compounds in DMSO were diluted 20 fold in assay buffer (10 mM Tris-HCl, pH 8.5, 10 mM DTT, and 0.01% Triton X-100) before adding […] to a well in a 384 well polypropylene microplate plate and adding 8 μl of reaction mix (1.25 nM hPRDM9 (amino acids 195-385), 1.25 μM biotinylated H3 peptide in assay buffer). The ^3[H]-SAM and cold SAM stock solutions were diluted to 50 μM and 550 μM respectively in assay buffer before aliquoting 1 μl of 50 μM ^3[H]-SAM, 550 μM SAM into each well to initiate the reaction. The assay was performed at 25° C. at the final concentrations of 1 nM hPRDM9, 1 μM peptide, 5 μM ^3[H]-SAM, and 55 μM un-labeled SAM in assay buffer. The reaction was quenched after 30 minutes by adding 25 μl 7.5 M Guanidine-HCl. Quenched reactions were transferred to streptavidin coated Flashplates, diluted two fold in assay buffer, incubated for 1 hour, and read on a Perkin Elmer Topcount instrument. Compound activity was expressed relative to activity of 0.5% (v/v) DMSO treated samples and fit to a four parameter logistic equation to determine IC50 values.

| Structure (SMILES) | IC50 |
| --- | --- |
| Cc1cc(NC2CC3(CCN(c4nc(-c5cc(Cl)cc(Cl)c5)no4)C3)C2)ccn1 (stereo not drawn) [Compound 154, 6-(3-(3,5-dichlorophenyl)-1,2,4-oxadiazol-5-yl)-N-(2-methylpyridin-4-yl)-6-azaspiro[3.4]octan-2-amine] | 3.45 µM |
| Cc1cc(NC2CC3(CCN(c4nc(-c5cc(Cl)cc(Cl)c5)no4)C3)C2)ccn1 (stereo not drawn) [Compound 155] | 3.46 µM |
| Cc1cc(NC2CC23CCN(c2nc(-c4cc(Cl)cc(Cl)c4)no2)C3)ccn1 (stereo not drawn) [Compound 156] | 16 µM |
| Cc1cc(NC2CC23CCN(c2nc(-c4cc(Cl)cc(Cl)c4)no2)C3)ccn1 (stereo not drawn) [Compound 157] | 31 µM |
| COc1cc(OC)cc(-c2noc(N3CCC4(CC5CCC(C4)N5c4ccnc(C)c4)C3)n2)c1 (stereo not drawn) [Compound 158] | 3.81 µM |
| COc1cc(OC)cc(-c2noc(N3CCO[C@]4(C[C@H]5CC[C@@H](C4)N5c4ccnc(C)c4)C3)n2)c1 [Compound 160] | 0.35 µM |
| COc1cc(OC)cc(-c2noc(N3CCN(C)C4(CCN(c5ccnc(C)c5)CC4)C3)n2)c1 [Compound 161] | 0.049 µM |
| COc1cc(OC)cc(-c2nnc(N3CCN(C)C4(CCN(c5ccnc(C)c5)CC4)C3)o2)c1 [Compound 162] | 0.47 µM |
| COc1cc(OC)cc(-c2noc(N3CC(C)(C)OC4(CN(c5ccnc(C)c5)C4)C3)n2)c1 [Compound 163] | 3.08 µM |
| COc1cc(OC)cc(-c2noc(N3CCN(C)C4(CN(c5ccnc(C)c5)C4)C3)n2)c1 [Compound 164] | 0.315 µM |
| COc1cccc(-c2noc(N3CCOC4(CCN(c5ccnc(C)c5)CC4)C3)n2)c1 [Compound 166] | 0.8 µM |
| COc1cccc(-c2noc(N3CC4CC4(CNc4ccnc(C)c4)C3)n2)c1 (stereo not drawn) [Compound 167] | 23 µM |
| Cc1cc(NCC23CC2CN(c2nc(-c4cc(Cl)cc(Cl)c4)no2)C3)ccn1 (stereo not drawn) [Compound 168] | 9 µM |
| COc1cccc(-c2noc(N3CCOC(CCNc4ccnc(C)c4)C3)n2)c1 (stereo not drawn) [Compound 169] | 2 µM |
| Cc1cc(NCCC2CN(c3nc(-c4cc(Cl)cc(Cl)c4)no3)CCO2)ccn1 (stereo not drawn) [Compound 170] | 0.4 µM |
| COc1cccc(-c2noc(N3CCC(CCNc4ccnc(C)c4)C3)n2)c1 (stereo not drawn) [Compound 171] | 4 µM |
| Cc1cc(NCC2CC(C)N(c3nc(-c4cc(Cl)cc(Cl)c4)no3)C2)ccn1 (stereo not drawn) [Compound 172] | 5.29 µM |
| Cc1cc(NCC2CC(C)N(c3nc(-c4cc(Cl)cc(Cl)c4)no3)C2)ccn1 (stereo not drawn) [Compound 173] | 5.5 µM |
| Cc1cc(NCC2CN(c3nc(-c4cc(Cl)cc(Cl)c4)no3)CCC2C)ccn1 (stereo not drawn) [Compound 174] | 1.58 µM |
| Cc1cc(NCCC2CN(c3nc(-c4cc(Cl)cc(Cl)c4)no3)c3ccccc32)ccn1 (stereo not drawn) [Compound 175] | 3.81 µM |
| Cc1cc(NCC2CN(c3nc(-c4cc(Cl)cc(Cl)c4)no3)CCC2C)ccn1 (stereo not drawn) [Compound 176] | 13.6 µM |
| Cc1cc(NC2CCC3CN(c4nc(-c5cc(Cl)cc(Cl)c5)no4)CC32)ccn1 (stereo not drawn) [Compound 177] | 8.64 µM |

| Structure (SMILES) | IC50 |
| --- | --- |
| Cc1cc(NC2CCC3CN(c4nc(-c5cc(Cl)cc(Cl)c5)no4)CC32)ccn1 (stereo not drawn) [Compound 178] | 1.15 µM |
| COc1cc(OC)cc(-c2noc(N3Cc4ccccc4C4(CCN(c5ccnc(C)c5)CC4)C3)n2)c1 [Compound 180] | 0.08 µM |
| COc1cc(OC)cc(-c2noc(N3CC(c4ccccc4)OC4(CCN(c5ccnc(C)c5)CC4)C3)n2)c1 (stereo not drawn) [Compound 181] | 2.14 µM |
| COc1cc(OC)cc(-c2noc(N3CCCC4(CN(c5ccnc(C)c5)C4)C3)n2)c1 [Compound 182] | 0.163 µM |
| COc1cc(OC)cc(-c2noc(N3CC(F)(F)OC4(CCN(c5ccnc(C)c5)CC4)C3)n2)c1 [Compound 184] | 0.814 µM |
| COc1cc(OC)cc(-c2noc(N3CCC(O)C4(CCN(c5ccnc(C)c5)CC4)C3)n2)c1 (stereo not drawn) [Compound 186] | 0.217 µM |
| COc1cc(OC)cc(-c2noc(N3CCCC4(CCN(c5cc(C)nc(F)c5)CC4)C3)n2)c1 [Compound 188] | 45 µM |
| COc1cc(N2CC3(CCCN(c4nc(-c5cc(Cl)cc(Cl)c5)no4)C3)C2)ccn1 [Compound 193] | 2 µM |
| Clc1cc(Cl)cc(-c2noc(N3CCCC4(CN(c5cccnn5)C4)C3)n2)c1 [Compound 196] | 19 µM |
| N#Cc1ccnc(N2CC3(CCCN(c4nc(-c5cc(Cl)cc(Cl)c5)no4)C3)C2)c1 [Compound 197] | 2 µM |
| OCc1ncc(N2CC3(CCCN(c4nc(-c5cc(Cl)cc(Cl)c5)no4)C3)C2)cn1 [Compound 200] | 19 µM |
| Clc1cc(Cl)cc(-c2noc(N3CCCC4(CN(c5cnccn5)C4)C3)n2)c1 [Compound 202] | 2 µM |
| Clc1cc(Cl)cc(-c2noc(N3CCCC4(CN(c5ccncc5)C4)C3)n2)c1 [Compound 203] | 1 µM |
| Cc1cc(N2CC3(CCCN(c4nc(-c5cc(Cl)cc(Cl)c5)no4)C3)C2)cc(C)n1 [Compound 205] | 0.16 µM |
| CC(C)c1cc(N2CC3(CCCN(c4nc(-c5cc(Cl)cc(Cl)c5)no4)C3)C2)ccn1 [Compound 206] | 1.6 µM |
| CCc1cc(N2CC3(CCCN(c4nc(-c5cc(Cl)cc(Cl)c5)no4)C3)C2)ccn1 [Compound 207] | 0.4 µM |
| O=c1cc(N2CC3(CCCN(c4nc(-c5cc(Cl)cc(Cl)c5)no4)C3)C2)cc[nH]1 [Compound 208] | 5 µM |
| Cc1cc(N2CCCC3CN(c4nc(-c5cc(Cl)cc(Cl)c5)no4)CC32)ccn1 (stereo not drawn) [Compound 210] | 35 µM |
| Cc1cc(N2CCC(C)(Nc3nc(-c4cc(Cl)cc(Cl)c4)no3)C2)ccn1 (stereo not drawn) [Compound 211] | 24 µM |
| Cc1cc(N2CC3CCN(c4nc(-c5cc(Cl)cc(Cl)c5)no4)C3C2)ccn1 (stereo not drawn) [Compound 212] | 24 µM |
| Cc1cc(N2CCC3C2CCCN3c2nc(-c3cc(Cl)cc(Cl)c3)no2)ccn1 (stereo not drawn) [Compound 213] | 1 µM |
| Cc1cc(N2CCC3(CC2)CCN(c2nc(-c4cc(Cl)cc(Cl)c4)no2)C3)ccn1 [Compound 214] | 0.464 µM |

| Structure (SMILES) | IC50 |
| --- | --- |
| Cc1cc(N2CCC(CNc3nc(-c4cc(Cl)cc(Cl)c4)no3)C2)ccn1 (stereo not drawn) [Compound 215] | 11 µM |
| Cc1cc(N2CCC3(CCCN(c4nc(-c5cc(Cl)cc(Cl)c5)no4)C3)CC2)ccn1 [Compound 216] | 0.246 µM |
| Cc1cc(N2CC[C@H](Nc3nc(-c4cc(Cl)cc(Cl)c4)no3)C[C@@H]2C)ccn1 [Compound 217] | 29.2 µM |
| Cc1cc(N2CCC3C(CCN3c3nc(-c4cc(Cl)cc(Cl)c4)no3)C2)ccn1 (stereo not drawn) [Compound 218] | 35.5 µM |
| Cc1cc(N2CCC3CN(c4nc(-c5cc(Cl)cc(Cl)c5)no4)CC3C2)ccn1 (stereo not drawn) [Compound 219] | 4.3 µM |
| Cc1cc(NCC2=CCCN(c3nc(-c4cc(Cl)cc(Cl)c4)no3)C2)ccn1 [Compound 220] | 9.2 µM |
| Cc1cc(NCC2CCCN(c3nc(-c4cc(Cl)cc(Cl)c4)no3)C2)ccn1 (stereo not drawn) [Compound 221] | 5.38 µM |
| Cc1cc(NC(C)C2CCN(c3nc(-c4cc(Cl)cc(Cl)c4)no3)C2)ccn1 (stereo not drawn) [Compound 222] | 13.8 µM |
| Cc1cc(N2CCC3(CCCN(c4nc(-c5cc(Cl)cc(Cl)c5)no4)C3)C2)ccn1 (stereo not drawn) [Compound 223] | 12.1 µM |
| Cc1cc(N2CCC(Nc3nc(-c4cc(Cl)cc(Cl)c4)no3)CC2)ccn1 [Compound 225] | ≥ 50 µM |
| Cc1cc(NC(C)C2CCN(c3nc(-c4cc(Cl)cc(Cl)c4)no3)C2)ccn1 (stereo not drawn) [Compound 227] | 35.5 µM |
| Cc1cc(N2CC3C(C2)C3Nc2nc(-c3cc(Cl)cc(Cl)c3)no2)ccn1 (stereo not drawn) [Compound 228] | 34.3 µM |
| Cc1cc(N2CCC3(CCC3Nc3nc(-c4cc(Cl)cc(Cl)c4)no3)CC2)ccn1 (stereo not drawn) [Compound 230] | 11.5 µM |
| Cc1cc(N2CCCC3(CCN3c3nc(-c4cc(Cl)cc(Cl)c4)no3)C2)ccn1 (stereo not drawn) [Compound 231] | 37.3 µM |
| N#Cc1cncc(N2CC3(CCCN(c4nc(-c5cc(Cl)cc(Cl)c5)no4)C3)C2)c1 [Compound 232] | 2 µM |
| Cc1cc(N2CCC(CNc3nc(-c4cc(Cl)cc(Cl)c4)no3)CC2)ccn1 [Compound 233] | 2.75 µM |
| Cc1cc(N2CC3(CC(Nc4nc(-c5cc(Cl)cc(Cl)c5)no4)C3)C2)ccn1 [Compound 234] | 8.03 µM |
| Cc1cc(N2CC[C@H](CNc3nc(-c4cc(Cl)cc(Cl)c4)no3)C2)ccn1 [Compound 235] | 29.5 µM |
| COc1cccc(-c2noc(N3CCCC4(CCN(c5ccnc(C)c5)CC4)C3)n2)c1 [Compound 236] | 0.4 µM |
| COc1cc(OC)cc(-c2noc(N3CCCC4(CCN(c5ccncc5OC)CC4)C3)n2)c1 [Compound 237] | 7.3 µM |
| Cc1cc(NC(=O)C2CCN(c3nc(-c4cc(Cl)cc(Cl)c4)no3)CC2)ccn1 [Compound 238, 1-(3-(3,5-dichlorophenyl)-1,2,4-oxadiazol-5-yl)-N-(2-methylpyridin-4-yl)piperidine-4-carboxamide] | ≥ 50 µM |
| Cc1cc(N2CC3(CC(NC(=O)Nc4cc(Cl)cc(Cl)c4)C3)C2)ccn1 [Compound 239, 1-(3,5-dichlorophenyl)-3-(2-(2-methylpyridin-4-yl)-2-azaspiro[3.3]heptan-6-yl)urea] | ≥ 50 µM |
